Converted amounts (≈) assume the structure as drawn.
Tests used:
[1] = Solubility of compound at pH 7; type: physicochemical; conditions: buffer
[2] = Metabolic stability in human liver microsomes assessed as intrinsic clearance; type: ADME, Microsome; conditions: read-out: CLH
[3] = Metabolic stability in rat hepatocyte assessed as intrinsic clearance; type: ADME, tissue-based; conditions: hepatocytes, read-out: CLH
[4] = target: Choline/ethanolamine kinase (Homo sapiens, UniProt Q9Y259)
Choline/ethanolamine kinase, sequence (Q9Y259 whole entry): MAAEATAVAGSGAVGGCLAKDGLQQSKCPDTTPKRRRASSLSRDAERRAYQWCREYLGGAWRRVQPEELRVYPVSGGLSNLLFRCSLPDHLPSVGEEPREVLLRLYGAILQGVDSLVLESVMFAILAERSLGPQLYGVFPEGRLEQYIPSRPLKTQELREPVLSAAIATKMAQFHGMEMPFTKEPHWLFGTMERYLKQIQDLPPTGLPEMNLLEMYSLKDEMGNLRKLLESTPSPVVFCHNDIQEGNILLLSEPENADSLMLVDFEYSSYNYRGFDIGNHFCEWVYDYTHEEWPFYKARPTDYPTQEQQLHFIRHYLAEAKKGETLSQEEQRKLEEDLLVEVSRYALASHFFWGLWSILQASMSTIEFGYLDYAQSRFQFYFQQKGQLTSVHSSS

| Structure (SMILES) | solubility [1] [µM] | CLint scaled [2] [mL/min/kg] | CLint scaled [3] [mL/min/kg] | IC50 [4] [µM] |
| --- | --- | --- | --- | --- |
| CN1CCc2nc(NC(=O)[C@H]3CC[C@@H](n4cnc5c(N)nc(F)nc54)CC3)sc2C1 | 105 (≈ 45.2 µg/mL) | 13 | 22 |  |
| CC(C)N1CCc2nc(NC(=O)[C@H]3CC[C@@H](n4cnc5c(N)nc(Cl)nc54)CC3)sc2C1 | 73 (≈ 34.7 µg/mL) |  |  |  |
| COc1cccc(NC(=O)[C@H]2CC[C@@H](n3cnc4c(N)nc(-c5ccc6cn[nH]c6c5)nc43)CC2)c1 |  |  |  | > 10 |
| COc1cccc(NC(=O)[C@H]2CC[C@@H](n3cnc4c(N)nc(N5CCN(C)CC5)nc43)CC2)c1 |  |  |  | > 10 |
| COc1cccc(NC(=O)[C@H]2CC[C@@H](n3cnc4c(N)nc(-c5ccc6[nH]ncc6c5)nc43)CC2)c1 |  |  |  | > 10 |
| Nc1ncnc2c1ncn2[C@H]1CC[C@@H](C(=O)Nc2ccc(S(=O)(=O)C(F)(F)F)cc2)CC1 |  |  |  | > 10 |
| Nc1nc(Cl)nc2c1ncn2[C@H]1CC[C@@H](C(=O)Nc2nc(C(F)(F)F)cs2)CC1 | 9 (≈ 4.01 µg/mL) |  |  |  |
| CS(=O)(=O)c1ccc(NC(=O)[C@H]2CC[C@@H](n3cnc4c(N)ncnc43)CC2)cc1 |  |  |  | > 10 |
| Cc1csc(NC(=O)[C@H]2CC[C@@H](n3cnc4c(N)nc(F)nc43)CC2)n1 | 2 (≈ 0.751 µg/mL) | 12 | 34 |  |
| Cl.Nc1nc(Cl)nc2c1ncn2[C@H]1CC[C@@H](C(=O)Nc2nc3c(s2)CN(C2CC2)CC3)CC1 | 13 |  |  |  |
| Nc1ncnc2c1ncn2[C@H]1CC[C@@H](C(=O)Nc2cccc(S(=O)(=O)C(F)(F)F)c2)CC1 |  |  |  | > 10 |
| CC1(C)Cc2nc(NC(=O)[C@H]3CC[C@@H](n4cnc5c(N)nc(F)nc54)CC3)sc2C(C)(C)N1 | 200 (≈ 94.5 µg/mL) | 56 | 84 |  |
| CC1(C)Cc2nc(NC(=O)[C@H]3CC[C@@H](n4cnc5c(N)nc(Cl)nc54)CC3)sc2C(C)(C)N1 | 119 (≈ 58.2 µg/mL) | 78 | 97 |  |

The remaining lines, values ahead:

| solubility [1] [µM] | CLint scaled [2] [mL/min/kg] | CLint scaled [3] [mL/min/kg] | IC50 [4] [µM] | Structure (SMILES) |
| --- | --- | --- | --- | --- |
| 1 (≈ 0.458 µg/mL) |  |  |  | COc1ccc2nc(NC(=O)[C@H]3CC[C@@H](n4cnc5c(N)nc(Cl)nc54)CC3)sc2c1 |
| 3 (≈ 1.33 µg/mL) |  |  |  | Nc1nc(Cl)nc2c1ncn2[C@H]1CC[C@@H](C(=O)Nc2nc3ccc(O)cc3s2)CC1 |
| 1 (≈ 0.464 µg/mL) |  |  |  | Nc1nc(Cl)nc2c1ncn2[C@H]1CC[C@@H](C(=O)Nc2nc3c(F)cc(F)cc3s2)CC1 |
| 4 (≈ 1.74 µg/mL) |  |  |  | Nc1nc(Cl)nc2c1ncn2[C@H]1CC[C@@H](C(=O)Nc2nc3c(s2)COCC3)CC1 |
| 2 (≈ 0.97 µg/mL) |  |  |  | NC(=O)Cc1ccc2nc(NC(=O)[C@H]3CC[C@@H](n4cnc5c(N)nc(Cl)nc54)CC3)sc2c1 |
| 3 (≈ 1.41 µg/mL) |  |  |  | NC(=O)c1ccc2nc(NC(=O)[C@H]3CC[C@@H](n4cnc5c(N)nc(Cl)nc54)CC3)sc2c1 |
| 15 (≈ 5.88 µg/mL) | 12 | 34 |  | Cc1csc(NC(=O)[C@H]2CC[C@@H](n3cnc4c(N)nc(Cl)nc43)CC2)n1 |
| 3 (≈ 1.34 µg/mL) |  |  |  | Nc1nc(Cl)nc2c1ncn2[C@H]1CC[C@@H](C(=O)Nc2nc3ccc(F)cc3s2)CC1 |
| 5 (≈ 1.96 µg/mL) |  |  |  | Cc1cnc(NC(=O)[C@H]2CC[C@@H](n3cnc4c(N)nc(Cl)nc43)CC2)s1 |
| 4 (≈ 1.78 µg/mL) |  |  |  | Nc1nc(Cl)nc2c1ncn2[C@H]1CC[C@@H](C(=O)Nc2nc3c(O)cccc3s2)CC1 |
| 37 (≈ 17.8 µg/mL) |  |  |  | Nc1nc(Cl)nc2c1ncn2[C@H]1CC[C@@H](C(=O)Nc2nc3c(s2)CS(=O)(=O)CC3)CC1 |
| 153 (≈ 66.2 µg/mL) |  |  |  | Nc1nc(Cl)nc2c1ncn2[C@H]1CC[C@@H](C(=O)Nc2nc3c(s2)CNCC3)CC1 |
| 6 (≈ 2.61 µg/mL) |  |  |  | NC(=O)Cc1csc(NC(=O)[C@H]2CC[C@@H](n3cnc4c(N)nc(Cl)nc43)CC2)n1 |
| 2 (≈ 0.916 µg/mL) |  |  |  | COc1cccc2sc(NC(=O)[C@H]3CC[C@@H](n4cnc5c(N)nc(Cl)nc54)CC3)nc12 |
| 171 (≈ 76.4 µg/mL) | 33 | 49 |  | CN1CCc2nc(NC(=O)[C@H]3CC[C@@H](n4cnc5c(N)nc(Cl)nc54)CC3)sc2C1 |
| 97 (≈ 42.2 µg/mL) |  |  |  | NC(=O)Cc1cnc(NC(=O)[C@H]2CC[C@@H](n3cnc4c(N)nc(Cl)nc43)CC2)s1 |
| 5 (≈ 2.27 µg/mL) |  |  |  | Nc1nc(Cl)nc2c1ncn2[C@H]1CC[C@@H](C(=O)Nc2nc(-c3ccccc3)cs2)CC1 |

From ChEMBL document CHEMBL5029157, “Identification of unprecedented ATP-competitive choline kinase inhibitors” (Bioorg Med Chem Lett, 2021)
